Earlier results as cited in US20170246117A1, “INJECTABLE MICROPARTICLES FOR HYPER-LOCALIZED RELEASE OF THERAPEUTIC AGENTS” (priority 2014, published 2017).

What was measured:
[1] = 40 mg, human subjects; Derendorf et al. 1986; FIG. 7
[2] = reported, Mollmann et al. 1998

| EC50 [2] [ng/mL] | SMILES | release profile after intra-articular administration [1] |
| --- | --- | --- |
| – | CC(C)(C)CC(=O)OCC(=O)[C@@]12OC(C)(C)O[C@@H]1C[C@H]1[C@@H]3CCC4=CC(=O)C=C[C@]4(C)[C@@]3(F)[C@@H](O)C[C@@]12C [triamcinolone hexacetonide] | significant initial burst followed by rapid decline |
| 0.007 to 0.03 | CCC(=O)O[C@]1(C(=O)SCF)[C@H](C)C[C@H]2[C@@H]3C[C@H](F)C4=CC(=O)C=C[C@]4(C)[C@@]3(F)[C@@H](O)C[C@@]21C [fluticasone propionate] | – |
